Drawing on patent US11325899B2, “Benzofurane and benzothiophene derivatives as PGE2 receptor modulators” (IDORSIA PHARMACEUTICALS LTD, priority 2017, dated 2022), this text covers IC50 for 26 molecules.

What is called IC50 is the concentration that inhibits the measured activity by half.

For one test, the target named is T1, EP2 receptor (Homo sapiens, UniProt P43116).
T1 construct: SF295 glioblastoma cells express high endogenous EP2 and no EP4; host or cells: SF295 glioblastoma cells
The test is described as follows: hEP2 cAMP assay (SF295 glioblastoma cells, HTRF cAMP, PGE2 stimulation). In kind it is cell-based. To be noted: antagonistic activity. In short, it runs like this: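 HTRF cAMP readout gave % cAMP relative to DMSO, fitted to IC50 with duplicate points. Compounds were preincubated 45 min at room temperature with EP2-expressing, EP4-negative SF295 cells in IBMX (2 mM)-containing buffer before a 30 min challenge with PGE2 at 75 nM final, its EC80.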

The next test has as its target T2, PTGER4 (EP4) (Homo sapiens, UniProt P35408).
T2 construct: host or cells: HEK 293 (PathHunter PTGER4 b-arrestin cell line)
The test is described as follows: hEP4 b-arrestin assay (PathHunter HEK 293 PTGER4 b-arrestin cells). In kind it is cell-based. To be noted: antagonistic activity, beta-arrestin assay; read-out: hEP4 b-arr IC50. In short, it runs like this:
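β-Arrestin recruitment to EP4 was read as enzyme-fragment-complementation chemiluminescence in stably transfected HEK 293 cells. After 15 min compound preincubation at 37 °C (ranges 10 μM–2 nM or 1 μM–0.2 nM), cells were stimulated 120 min with PGE2 at 20 nM, its EC80. IC50 values were fitted from duplicates, with repeat measurements averaged.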

T1 sequence (P43116 whole entry): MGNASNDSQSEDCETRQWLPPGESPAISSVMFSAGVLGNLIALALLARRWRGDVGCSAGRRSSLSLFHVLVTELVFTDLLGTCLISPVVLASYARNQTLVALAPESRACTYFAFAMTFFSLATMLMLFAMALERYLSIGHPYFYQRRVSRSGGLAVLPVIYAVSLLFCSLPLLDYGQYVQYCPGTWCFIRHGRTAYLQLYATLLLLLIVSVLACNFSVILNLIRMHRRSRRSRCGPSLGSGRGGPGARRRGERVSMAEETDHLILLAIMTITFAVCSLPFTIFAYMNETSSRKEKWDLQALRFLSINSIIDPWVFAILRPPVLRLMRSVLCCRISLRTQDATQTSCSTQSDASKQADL
T2 sequence (P35408 whole entry): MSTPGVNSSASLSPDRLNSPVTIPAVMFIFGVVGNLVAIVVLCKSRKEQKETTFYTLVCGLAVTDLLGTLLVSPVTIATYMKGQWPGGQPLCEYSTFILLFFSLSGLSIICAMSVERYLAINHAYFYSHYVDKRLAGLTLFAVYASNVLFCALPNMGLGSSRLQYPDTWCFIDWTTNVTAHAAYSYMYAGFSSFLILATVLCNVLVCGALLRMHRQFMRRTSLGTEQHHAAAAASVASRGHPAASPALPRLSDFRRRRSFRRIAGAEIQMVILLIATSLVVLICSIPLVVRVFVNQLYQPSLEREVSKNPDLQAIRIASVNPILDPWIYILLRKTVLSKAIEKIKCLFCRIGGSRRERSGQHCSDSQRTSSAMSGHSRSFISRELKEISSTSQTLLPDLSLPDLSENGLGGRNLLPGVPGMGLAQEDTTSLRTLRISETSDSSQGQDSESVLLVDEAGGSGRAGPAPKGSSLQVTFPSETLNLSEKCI

Turning to `CCOc1cc(-c2cc(NCCc3c(C)sc4c(C)c(F)ccc34)ncn2)ccc1OCC(=O)O` [Example 119, (2-Ethoxy-4-{6-[2-(6-fluoro-2,7-dimethyl-benzo[b]thiophen-3-yl)-ethylamino]-pyrimidin-4-yl}-phenoxy)-acetic acid], the IC50 against EP2 receptor was 119 nM; at PTGER4 (EP4), 143 nM.

Consider `CCOc1cc(-c2cc(NCCc3c(C)oc4c(Cl)cccc34)ncn2)ccc1OCC(=O)O` [Example 120, (4-{6-[2-(7-Chloro-2-methyl-benzofuran-3-yl)-ethylamino]-pyrimidin-4-yl}-2-ethoxy-phenoxy)-acetic acid], for which the IC50 on EP2 receptor was 59 nM; on PTGER4 (EP4), 290 nM.

For `CCOc1cc(-c2cc(NCCc3c(C)oc4c(OC)cc(Cl)cc34)ncn2)ccc1OCC(=O)O` [Example 121, (4-{6-[2-(5-Chloro-7-methoxy-2-methyl-benzofuran-3-yl)-ethylamino]-pyrimidin-4-yl}-2-ethoxy-phenoxy)-acetic acid], the values for the half-maximal inhibitory concentration (IC50) against EP2 receptor and at PTGER4 (EP4) were 155 nM and 75 nM, respectively.

With `CCOc1cc(-c2cc(NCCc3c(C)sc4c(C)cccc34)ncn2)ccc1OCC(=O)O` [Example 122, (4-{6-[2-(2,7-Dimethyl-benzo[b]thiophen-3-yl)-ethylamino]-pyrimidin-4-yl}-2-ethoxy-phenoxy)-acetic acid], the results for the half-maximal inhibitory concentration (IC50) on EP2 receptor and on PTGER4 (EP4) were 40 nM and 83 nM, respectively.

As for `CCCCOc1cc(-c2cc(NCCc3c(C)sc4c(C)cc(F)cc34)ncn2)ccc1C(=O)O` [Example 127, 2-Butoxy-4-{6-[2-(5-fluoro-2,7-dimethyl-benzo[b]thiophen-3-yl)-ethylamino]-pyrimidin-4-yl}-benzoic acid], the IC50 against EP2 receptor stood at 106 nM; at PTGER4 (EP4), 225 nM.

Turning to `Cc1oc2ccccc2c1CCNc1cc(-c2ccc(C(=O)O)c(SC3CCC3)c2)ncn1` [Example 129, 2-Cyclobutylsulfanyl-4-{6-[2-(2-methyl-benzofuran-3-yl)-ethylamino]-pyrimidin-4-yl}-benzoic acid], the values for the IC50 at EP2 receptor and on PTGER4 (EP4) were 15 nM and 1410 nM, respectively.

Turning to `Cc1sc2c(C)cccc2c1CCNc1cc(-c2ccc(C(=O)O)c(SC3CCC3)c2)ncn1` [Example 130, 2-Cyclobutylsulfanyl-4-{6-[2-(2,7-dimethyl-benzo[b]thiophen-3-yl)-ethylamino]-pyrimidin-4-yl}-benzoic acid], the 50% inhibitory concentration (IC50) against EP2 receptor came out at 20 nM; on PTGER4 (EP4), 193 nM.

On to `Cc1sc2c(C)cccc2c1CCNc1cc(-c2ccc(C(=O)O)c(SC3COC3)c2)ncn1` [Example 131, 4-{6-[2-(2,7-Dimethyl-benzo[b]thiophen-3-yl)-ethylamino]-pyrimidin-4-yl}-2-(oxetan-3-ylsulfanyl)-benzoic acid], for which the IC50 was 22 nM on EP2 receptor and 1220 nM at PTGER4 (EP4).

Take `O=C(O)c1ccc(-c2cc(NCCc3csc4ccccc34)ncn2)cc1OC1CCC1` [Example 132, 4-[6-(2-Benzo[b]thiophen-3-yl-ethylamino)-pyrimidin-4-yl]-2-cyclobutoxy-benzoic acid]: the concentration for half-maximal inhibition (IC50) at EP2 receptor was 167 nM; on PTGER4 (EP4) it was 561 nM.

As to `COc1cc(Cl)cc2c(CCNc3cc(-c4ccc(C(=O)O)c(OC5CCC5)c4)ncn3)c(C)oc12` [Example 133, 4-{6-[2-(5-Chloro-7-methoxy-2-methyl-benzofuran-3-yl)-ethylamino]-pyrimidin-4-yl}-2-cyclobutoxy-benzoic acid], the IC50 came out at 68 nM at EP2 receptor and 74 nM on PTGER4 (EP4).

Turning to `COc1ccc(F)c2c(CCNc3cc(-c4ccc(C(=O)O)c(OC5CCC5)c4)ncn3)c(C)sc12` [Example 134, 2-Cyclobutoxy-4-{6-[2-(4-fluoro-7-methoxy-2-methyl-benzo[b]thiophen-3-yl)-ethylamino]-pyrimidin-4-yl}-benzoic acid], the 50% inhibitory concentration (IC50) came out at 46 nM against EP2 receptor and 893 nM at PTGER4 (EP4).

On to `COc1ccc(Cl)c2c(CCNc3cc(-c4ccc(C(=O)O)c(OC5CCC5)c4)ncn3)c(C)sc12` [Example 135, 4-{6-[2-(4-Chloro-7-methoxy-2-methyl-benzo[b]thiophen-3-yl)-ethylamino]-pyrimidin-4-yl}-2-cyclobutoxy-benzoic acid], for which the IC50 is 30 nM at EP2 receptor and 235 nM at PTGER4 (EP4).

`Cc1sc2c(C)ccc(F)c2c1CCNc1cc(-c2ccc(C(=O)O)c(OC3CCC3)c2)ncn1` [Example 136, 2-Cyclobutoxy-4-{6-[2-(4-fluoro-2,7-dimethyl-benzo[b]thiophen-3-yl)-ethylamino]-pyrimidin-4-yl}-benzoic acid]: the figures for the 50% inhibitory concentration (IC50) on EP2 receptor and at PTGER4 (EP4) were 91 nM and 155 nM, respectively.

Consider `Cc1oc2c(Cl)cccc2c1CCNc1cc(-c2ccc(C(=O)O)c(OC3CCC3)c2)ncn1` [Example 137, 4-{6-[2-(7-Chloro-2-methyl-benzofuran-3-yl)-ethylamino]-pyrimidin-4-yl}-2-cyclobutoxy-benzoic acid], for which the results for the IC50 on EP2 receptor and at PTGER4 (EP4) were 49 nM and 258 nM, respectively.

Consider `Cc1sc2c(C)cc(F)cc2c1CCNc1cc(-c2ccc(C(=O)O)c(OC3CCC3)c2)ncn1` [Example 138, 2-Cyclobutoxy-4-{6-[2-(5-fluoro-2,7-dimethyl-benzo[b]thiophen-3-yl)-ethylamino]-pyrimidin-4-yl}-benzoic acid], for which the IC50 was determined as 75 nM on EP2 receptor and 269 nM on PTGER4 (EP4).

As for `COc1ccc(F)c2c(CCNc3cc(-c4ccc(C(=O)O)c(OC5CCC5)c4)ncn3)c(C)oc12` [Example 139, 2-Cyclobutoxy-4-{6-[2-(4-fluoro-7-methoxy-2-methyl-benzofuran-3-yl)-ethylamino]-pyrimidin-4-yl}-benzoic acid], the IC50 at EP2 receptor is 245 nM; on PTGER4 (EP4) it was 209 nM.

With `Cc1oc2c(C)cc(F)cc2c1CCNc1cc(-c2ccc(C(=O)O)c(OC3CCC3)c2)ncn1` [Example 140, 2-Cyclobutoxy-4-{6-[2-(5-fluoro-2,7-dimethyl-benzofuran-3-yl)-ethylamino]-pyrimidin-4-yl}-benzoic acid], the results for the half-inhibitory concentration (IC50) against EP2 receptor and on PTGER4 (EP4) were 72 nM and 1420 nM, respectively.

With `COc1cc(F)c(F)c2c(CCNc3cc(-c4ccc(C(=O)O)c(OC5CCC5)c4)ncn3)c(C)oc12` [Example 141, 2-Cyclobutoxy-4-{6-[2-(4,5-difluoro-7-methoxy-2-methyl-benzofuran-3-yl)-ethylamino]-pyrimidin-4-yl}-benzoic acid], the results for the IC50 on EP2 receptor and on PTGER4 (EP4) were 111 nM and 340 nM, respectively.

Regarding `CCOc1cc(-c2cc(NCCc3c(C)sc4c(C)cc(F)cc34)ncn2)ccc1-c1nnn[nH]1` [Example 142, {6-[3-Ethoxy-4-(1H-tetrazol-5-yl)-phenyl]-pyrimidin-4-yl}-[2-(5-fluoro-2,7-dimethyl-benzo[b]thiophen-3-yl)-ethyl]-amine], the half-maximal inhibitory concentration (IC50) was 38 nM at EP2 receptor and 41 nM on PTGER4 (EP4).

In the case of `CCOc1cc(-c2cc(NCCc3c(C)sc4c(C)cc(F)cc34)ncn2)ccc1OCCC(=O)O` [Example 143, 3-(2-Ethoxy-4-{6-[2-(5-fluoro-2,7-dimethyl-benzo[b]thiophen-3-yl)-ethylamino]-pyrimidin-4-yl}-phenoxy)-propionic acid], the IC50 on EP2 receptor was 86 nM; at PTGER4 (EP4), 63 nM.

As to `CCCCOc1cc(-c2cc(NCCc3c(C)sc4c(C)cc(F)cc34)ncn2)cc(F)c1C(=O)O` [Example 144, 2-Butoxy-6-fluoro-4-{6-[2-(5-fluoro-2,7-dimethyl-benzo[b]thiophen-3-yl)-ethylamino]-pyrimidin-4-yl}-benzoic acid], the concentration for half-maximal inhibition (IC50) came out at 26 nM against EP2 receptor and 92 nM at PTGER4 (EP4).

As for `COc1ccc(F)c2c(CCNc3cc(-c4ccc(C(=O)O)c(OC5CCC5)c4F)ncn3)c(C)sc12` [Example 146, 2-Cyclobutoxy-3-fluoro-4-{6-[2-(4-fluoro-7-methoxy-2-methyl-benzo[b]thiophen-3-yl)-ethylamino]-pyrimidin-4-yl}-benzoic acid], the IC50 at EP2 receptor was 47 nM; on PTGER4 (EP4), 357 nM.

On to `COc1cc(Cl)cc2c(CCNc3cc(-c4ccc(C(=O)O)c(OC5CCC5)c4F)ncn3)c(C)oc12` [Example 147, 4-{6-[2-(5-Chloro-7-methoxy-2-methyl-benzofuran-3-yl)-ethylamino]-pyrimidin-4-yl}-2-cyclobutoxy-3-fluoro-benzoic acid], for which the IC50 against EP2 receptor turned out to be 117 nM; on PTGER4 (EP4), 873 nM.

With `Cc1sc2c(C)ccc(F)c2c1CCNc1cc(-c2cc(F)c(C(=O)O)c(OC3CCC3)c2)ncn1` [Example 148, 2-Cyclobutoxy-6-fluoro-4-{6-[2-(4-fluoro-2,7-dimethyl-benzo[b]thiophen-3-yl)-ethylamino]-pyrimidin-4-yl}-benzoic acid], the half-maximal inhibitory concentration (IC50) on EP2 receptor worked out at 109 nM; on PTGER4 (EP4), 43 nM.

Regarding `COc1ccc(F)c2c(CCNc3cc(-c4cc(F)c(C(=O)O)c(OC5CCC5)c4)ncn3)c(C)sc12` [Example 149, 2-Cyclobutoxy-6-fluoro-4-{6-[2-(4-fluoro-7-methoxy-2-methyl-benzo[b]thiophen-3-yl)-ethylamino]-pyrimidin-4-yl}-benzoic acid], the IC50 at EP2 receptor amounted to 114 nM; at PTGER4 (EP4), 67 nM.

On to `COc1cc(F)c(F)c2c(CCNc3cc(-c4cc(F)c(C(=O)O)c(OC5CCC5)c4)ncn3)c(C)oc12` [Example 150, 2-Cyclobutoxy-4-{6-[2-(4,5-difluoro-7-methoxy-2-methyl-benzofuran-3-yl)-ethylamino]-pyrimidin-4-yl}-6-fluoro-benzoic acid], for which the 50% inhibitory concentration (IC50) against EP2 receptor was determined as 97 nM; at PTGER4 (EP4) it was 363 nM.
